pIC50: −log10 of the molar value.

As a reminder, the pIC50 is −log10 of the IC50, conventionally taken in molar units. Low readings indicate a high IC50, high ones a low IC50.

Data set [1] addresses T1, CYP1A2 (Homo sapiens, UniProt P05177).
T1 construct: recombinant human enzyme in membrane preparation (Promega P450-Glo CYP1A2 Screening System)
T1 sequence (P05177 2-516): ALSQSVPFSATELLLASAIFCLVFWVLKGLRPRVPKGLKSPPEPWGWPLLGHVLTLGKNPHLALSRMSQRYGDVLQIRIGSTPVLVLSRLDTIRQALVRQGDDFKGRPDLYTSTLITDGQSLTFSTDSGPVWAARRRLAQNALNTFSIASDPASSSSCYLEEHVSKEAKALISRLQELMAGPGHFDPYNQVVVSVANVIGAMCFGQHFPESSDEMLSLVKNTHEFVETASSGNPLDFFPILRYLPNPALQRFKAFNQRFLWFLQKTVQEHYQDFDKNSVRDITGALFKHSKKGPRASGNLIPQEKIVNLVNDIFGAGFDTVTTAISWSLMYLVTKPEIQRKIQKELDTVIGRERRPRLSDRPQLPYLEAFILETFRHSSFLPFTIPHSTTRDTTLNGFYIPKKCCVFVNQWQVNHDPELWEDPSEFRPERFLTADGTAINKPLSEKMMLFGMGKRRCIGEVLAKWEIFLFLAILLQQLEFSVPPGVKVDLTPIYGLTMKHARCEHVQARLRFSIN
Briefly: P450-Glo luminescence turnover. It is filed as biochemical. As to conditions: NADPH regeneration system; potassium phosphate buffer; […] °C; luminogenic substrate.

Data set [2] has as its target CYP2C19 (Homo sapiens, UniProt P33261). Briefly: P450-Glo luminescence inhibition assay.

Chain of CYP2C19 (P33261 whole entry): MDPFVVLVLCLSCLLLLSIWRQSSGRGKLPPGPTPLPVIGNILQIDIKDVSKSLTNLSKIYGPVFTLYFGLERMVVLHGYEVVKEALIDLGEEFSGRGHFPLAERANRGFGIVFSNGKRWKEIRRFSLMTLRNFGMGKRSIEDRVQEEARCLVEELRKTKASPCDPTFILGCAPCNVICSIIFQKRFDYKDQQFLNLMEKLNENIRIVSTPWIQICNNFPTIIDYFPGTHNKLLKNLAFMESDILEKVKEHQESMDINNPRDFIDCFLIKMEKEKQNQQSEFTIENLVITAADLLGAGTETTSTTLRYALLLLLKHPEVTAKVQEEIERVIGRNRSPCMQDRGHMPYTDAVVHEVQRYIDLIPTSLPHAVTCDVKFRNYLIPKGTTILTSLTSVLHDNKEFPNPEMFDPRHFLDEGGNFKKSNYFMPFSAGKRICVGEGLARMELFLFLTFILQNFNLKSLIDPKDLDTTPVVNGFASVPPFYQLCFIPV

Take `COc1ccc2nc(C3=NC(C(=O)O)CS3)sc2c1` (centres unmarked) [Luciferin-ME]: the P450-Glo luminescence turnover entry in data set [1] is recorded as “Luciferin-ME (CYP1A2) as luminogenic substrate”.

In turn, `CCCCCCCCCC(=O)N(C)C` [NDA, N,N-dimethyldecanamide] showed a negative logarithm of the IC50 (pIC50) in data set [2] of 5.39.

Source of the values: PMC12367827, “Prioritisation of co-formulants and plant protection products for non-dietary risk assessment using NAMs” (Archives of Toxicology, 2025).
